The AC50 is the concentration at which the activity in the assay is half-maximal. As usually defined, the CC50 is the concentration that lowers cell viability or growth by half.

Active and inactive are the calls of the source.

The text below walks through data of ChEMBL document CHEMBL1201862, “PubChem BioAssay data set” (2004).

Targets include Cytochrome P450 2D6 (Homo sapiens, UniProt P10635); Cytochrome P450 2C9 (Homo sapiens, UniProt P11712); Cytochrome P450 3A4 (Homo sapiens, UniProt P08684).
The target in assay [1] is T1, Corticotropin-releasing factor receptor 2/Corticotropin-releasing factor-binding protein (Homo sapiens, UniProt P24387+Q13324).
T1 sequence (Q13324 whole entry): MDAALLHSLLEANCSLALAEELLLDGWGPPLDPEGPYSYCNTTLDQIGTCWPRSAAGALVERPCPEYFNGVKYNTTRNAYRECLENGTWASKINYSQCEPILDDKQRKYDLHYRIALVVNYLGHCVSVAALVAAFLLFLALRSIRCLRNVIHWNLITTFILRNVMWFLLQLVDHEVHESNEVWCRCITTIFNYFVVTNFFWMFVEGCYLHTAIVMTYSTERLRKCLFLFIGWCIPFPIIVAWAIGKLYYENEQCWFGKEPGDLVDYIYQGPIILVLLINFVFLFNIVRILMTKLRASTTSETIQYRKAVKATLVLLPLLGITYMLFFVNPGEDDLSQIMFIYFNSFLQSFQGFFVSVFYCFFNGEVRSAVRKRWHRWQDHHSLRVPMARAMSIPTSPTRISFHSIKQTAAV
T1 sequence (P24387 whole entry): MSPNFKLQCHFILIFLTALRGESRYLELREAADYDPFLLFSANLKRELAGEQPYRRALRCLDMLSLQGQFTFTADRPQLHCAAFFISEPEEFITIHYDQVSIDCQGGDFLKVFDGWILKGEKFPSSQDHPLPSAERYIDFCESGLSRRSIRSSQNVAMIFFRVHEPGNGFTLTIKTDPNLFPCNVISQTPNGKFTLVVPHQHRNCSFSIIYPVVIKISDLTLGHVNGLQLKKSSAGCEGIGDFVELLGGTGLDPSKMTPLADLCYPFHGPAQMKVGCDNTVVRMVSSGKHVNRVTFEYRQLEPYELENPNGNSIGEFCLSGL
In words: Dose Response confirmation of uHTS hits for small molecule antagonists of the CRF-binding protein and CRF-R2 receptor complex. Conditions: read-out: IC50_Mean. The format is functional.

Assay [2] concerns the target T1, Corticotropin-releasing factor receptor 2/Corticotropin-releasing factor-binding protein. In words: activators of CRF receptor 2 with binding protein – uHTS hits, confirmation (AID 602473). Format: functional. Conditions: read-out: EC50_Mean.
The target in assay [3] is Luciferin 4-monooxygenase (Photinus pyralis, UniProt P08659). In words: inhibition of purified Photinus pyralis luciferase – biochemical, luminescence, dose response (AID 1891).
Luciferin 4-monooxygenase, sequence (P08659 whole entry): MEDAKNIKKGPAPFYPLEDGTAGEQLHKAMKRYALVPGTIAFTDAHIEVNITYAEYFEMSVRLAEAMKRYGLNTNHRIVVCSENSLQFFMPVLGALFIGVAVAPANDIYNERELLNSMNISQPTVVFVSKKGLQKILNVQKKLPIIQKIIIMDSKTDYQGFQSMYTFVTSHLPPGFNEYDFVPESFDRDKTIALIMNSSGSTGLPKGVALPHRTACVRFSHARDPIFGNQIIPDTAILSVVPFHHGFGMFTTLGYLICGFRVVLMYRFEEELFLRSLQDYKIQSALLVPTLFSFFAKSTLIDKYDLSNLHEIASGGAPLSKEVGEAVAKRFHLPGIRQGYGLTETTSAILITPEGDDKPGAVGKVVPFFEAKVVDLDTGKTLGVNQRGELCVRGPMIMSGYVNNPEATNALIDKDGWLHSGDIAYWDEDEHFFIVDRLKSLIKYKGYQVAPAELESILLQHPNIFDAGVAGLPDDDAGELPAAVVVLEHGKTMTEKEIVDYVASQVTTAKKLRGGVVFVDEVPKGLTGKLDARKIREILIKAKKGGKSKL
The nature of assay [4]: Luminescence Cell-Based Dose Confirmation HTS to Identify Inhibitors of Platelet Dense Granule Release. [Related pubchem assays: 1663 (Primary HTS), 1678 (Summary of Project)]. The format is functional.
Assay [5] in a line: viability of HCT116 lacking mutant beta-catenin – cell-based, human colon tumor, dose response (AID 1045).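 Further: HCT116 colon tumor cells with beta catenin knocked out; cells exposed to compound for 60 hours.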 The format is functional.
A short description of assay [6]: viability of PTEN-deleted HCT116 cells – cell-based, HCT116 PTEN knockout, dose response (AID 1047).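 Further: HCT116 colon tumor cells with PTEN knocked out; cells exposed to compound for 60 hours before readout; potency for loss of cell viability measured by luminescence.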 The format is functional.
Assay [7] deals with T2, Heat shock factor protein 1 (Mus musculus, UniProt P38532).
T2 sequence (P38532 whole entry): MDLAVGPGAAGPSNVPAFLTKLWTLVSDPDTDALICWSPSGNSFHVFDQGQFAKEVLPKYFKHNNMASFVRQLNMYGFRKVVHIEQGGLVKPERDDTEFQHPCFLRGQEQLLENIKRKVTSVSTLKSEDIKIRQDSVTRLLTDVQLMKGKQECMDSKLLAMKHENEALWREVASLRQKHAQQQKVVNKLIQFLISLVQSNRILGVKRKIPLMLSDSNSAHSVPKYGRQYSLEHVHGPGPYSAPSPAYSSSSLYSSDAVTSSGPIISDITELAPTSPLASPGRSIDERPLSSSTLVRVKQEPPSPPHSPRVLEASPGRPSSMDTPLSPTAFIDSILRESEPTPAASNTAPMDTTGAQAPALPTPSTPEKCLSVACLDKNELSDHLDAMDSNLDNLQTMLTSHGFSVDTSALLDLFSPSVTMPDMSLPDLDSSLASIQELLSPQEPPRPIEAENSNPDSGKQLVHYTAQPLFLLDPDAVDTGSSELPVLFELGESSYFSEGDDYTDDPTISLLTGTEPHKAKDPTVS
Put plainly: decrease of HSF1-responsive luciferase luminescence – cell-based, NIH3T3, dose retest, confirmation (AID 2382).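 Further: NIH3T3 fibroblasts with HSF1-driven luciferase reporter stressed by proteasome inhibitor MG132; luminescence from HSF1-driven luciferase expression after 8 hours of MG132 stress.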 Format: functional.

The target in assay [8] is FAD-linked sulfhydryl oxidase ALR (Homo sapiens, UniProt P55789). Put plainly: ALR-catalysed DTT oxidation blockers – biochemical, H2O2 detection, luminescence, cherry-pick, dose response (AID 493248).
FAD-linked sulfhydryl oxidase ALR, sequence (P55789 whole entry): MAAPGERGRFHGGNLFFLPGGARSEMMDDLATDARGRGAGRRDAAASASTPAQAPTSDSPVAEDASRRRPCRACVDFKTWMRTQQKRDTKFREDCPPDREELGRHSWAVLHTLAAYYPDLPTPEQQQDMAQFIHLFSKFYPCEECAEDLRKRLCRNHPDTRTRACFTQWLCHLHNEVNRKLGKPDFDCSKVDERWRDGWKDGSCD
A short description of assay [9]: viability of uninfected HEp-2 cells – cell-based, HTS, cytotoxicity control for RSV inhibitor project, dose response (AID 2410). The format is functional. Particulars: human respiratory syncytial virus.
For another assay, the system named is H9c2. In words: cells. Conditions: Rattus norvegicus, H9c2, Myocardium. Format: functional, cell-based.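 Further: confirmatory concentration-response retest of ultra-high-throughput screening hits for modulation of myocardial damage; cell death induced by hydrogen peroxide oxidative stress; compound pretreatment for 60 min then peroxide exposure for 2 h; potency is for protecting the cells against peroxide damage rather than for killing them.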
A short description of assay [10]: NIH-3T3 fibroblast cytotoxicity, dose response, cytotoxicity control, cell-based, fluorescence, Alamar Blue, secondary assay (AID 2327).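 Further: NIH-3T3 mouse fibroblasts cultured with fluconazole at 8 µg/mL.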 Format: functional.
In a further assay the target is Cytochrome P450 2C19 (Homo sapiens, UniProt P33261). Put plainly: Cytochrome panel assay with activity outcomes. Panel member name: p450-cyp2c19 Compounds with AC50 equal or less than 10 uM are considered active. The format is functional. Particulars: read-out: AC50.
Cytochrome P450 2C19, sequence (P33261 whole entry): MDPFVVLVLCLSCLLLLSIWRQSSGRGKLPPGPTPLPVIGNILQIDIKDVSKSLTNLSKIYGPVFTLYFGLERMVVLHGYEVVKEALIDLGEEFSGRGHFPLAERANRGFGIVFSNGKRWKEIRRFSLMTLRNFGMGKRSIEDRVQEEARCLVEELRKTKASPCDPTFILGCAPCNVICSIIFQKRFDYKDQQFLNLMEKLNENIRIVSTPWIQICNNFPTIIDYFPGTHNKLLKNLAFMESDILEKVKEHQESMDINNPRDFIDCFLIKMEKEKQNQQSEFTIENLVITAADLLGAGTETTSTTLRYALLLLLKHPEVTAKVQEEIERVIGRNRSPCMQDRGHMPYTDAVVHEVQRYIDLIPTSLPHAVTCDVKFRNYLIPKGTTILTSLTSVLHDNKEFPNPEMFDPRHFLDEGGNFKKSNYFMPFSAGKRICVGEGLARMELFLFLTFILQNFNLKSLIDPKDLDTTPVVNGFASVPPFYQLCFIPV

Cytochrome P450 2D6, sequence (P10635 whole entry): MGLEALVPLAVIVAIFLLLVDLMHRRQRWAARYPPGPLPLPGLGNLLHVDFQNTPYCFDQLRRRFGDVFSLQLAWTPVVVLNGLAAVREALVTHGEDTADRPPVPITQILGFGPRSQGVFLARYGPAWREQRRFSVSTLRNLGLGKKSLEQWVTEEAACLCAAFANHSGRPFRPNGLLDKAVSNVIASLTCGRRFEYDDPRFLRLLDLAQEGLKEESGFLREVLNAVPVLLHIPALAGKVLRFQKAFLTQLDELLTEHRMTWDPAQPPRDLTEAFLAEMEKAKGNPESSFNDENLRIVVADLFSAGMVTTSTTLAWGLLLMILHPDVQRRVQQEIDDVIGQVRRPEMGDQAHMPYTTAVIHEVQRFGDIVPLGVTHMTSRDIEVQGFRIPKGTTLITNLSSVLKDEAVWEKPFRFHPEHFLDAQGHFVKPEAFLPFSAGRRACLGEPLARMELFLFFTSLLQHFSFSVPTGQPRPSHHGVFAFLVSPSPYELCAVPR
Cytochrome P450 3A4, sequence (P08684 whole entry): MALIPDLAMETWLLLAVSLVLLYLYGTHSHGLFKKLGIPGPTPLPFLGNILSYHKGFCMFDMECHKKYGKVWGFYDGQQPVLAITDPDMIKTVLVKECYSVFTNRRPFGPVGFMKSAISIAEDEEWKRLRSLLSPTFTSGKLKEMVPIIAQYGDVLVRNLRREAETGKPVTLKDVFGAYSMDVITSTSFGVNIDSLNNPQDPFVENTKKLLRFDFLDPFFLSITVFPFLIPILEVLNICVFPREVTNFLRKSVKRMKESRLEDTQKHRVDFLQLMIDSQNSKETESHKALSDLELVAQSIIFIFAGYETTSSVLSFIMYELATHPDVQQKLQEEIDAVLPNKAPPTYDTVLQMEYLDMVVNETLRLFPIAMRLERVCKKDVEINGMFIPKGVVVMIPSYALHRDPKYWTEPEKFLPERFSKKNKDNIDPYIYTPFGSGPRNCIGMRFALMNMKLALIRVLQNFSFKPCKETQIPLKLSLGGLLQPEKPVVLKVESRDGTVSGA
Cytochrome P450 2C9, sequence (P11712 whole entry): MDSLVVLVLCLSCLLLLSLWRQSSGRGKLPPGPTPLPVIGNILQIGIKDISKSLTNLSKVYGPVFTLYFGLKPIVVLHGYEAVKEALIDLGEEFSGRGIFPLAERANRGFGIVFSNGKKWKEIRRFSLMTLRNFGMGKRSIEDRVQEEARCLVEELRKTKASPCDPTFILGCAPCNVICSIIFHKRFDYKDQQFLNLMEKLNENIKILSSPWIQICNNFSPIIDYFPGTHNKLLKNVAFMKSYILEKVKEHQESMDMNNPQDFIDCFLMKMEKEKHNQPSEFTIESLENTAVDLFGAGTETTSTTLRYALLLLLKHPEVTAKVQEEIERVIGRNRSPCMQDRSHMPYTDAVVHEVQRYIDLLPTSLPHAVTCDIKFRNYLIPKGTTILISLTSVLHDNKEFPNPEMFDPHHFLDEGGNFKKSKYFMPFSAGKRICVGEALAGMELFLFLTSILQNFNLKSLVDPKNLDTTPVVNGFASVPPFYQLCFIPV

Consider `Cn1c(=O)oc2cc(S(=O)(=O)NCCC(=O)NCc3ccc(F)cc3)ccc21`, for which the IC50 in assay [1] was > 47.1 µM (inactive). Moreover, in assay [2], the EC50 is > 53 µM (inactive).
Regarding `COc1ccc(C(=O)Nc2sc(C)c(C)c2CN2CCOCC2)cc1`, the results for the EC50 in assay [3] and in assay [4] were > 112 µM (not active) and 12.6 µM (active), respectively.
Turning to `CCCN(CCC)S(=O)(=O)c1ccc(C(=O)Nc2nnc(CSC)o2)cc1`, the figures for the EC50 in assay [5] and in assay [6] were 12.7 µM (active) and 14.2 µM (active), respectively.
As for `Cc1noc(C)c1S(=O)(=O)N1CCC(C(=O)N2CCN(c3ccc(F)cc3)CC2)CC1`, in assay [1], the IC50 was > 47.1 µM (inactive). The EC50 in [2] is > 53 µM (inactive).
On to `Cc1nc2cc(N3CCCCC3)c(NC(=O)c3ccncc3)cc2c(=O)n1Cc1ccc(Cl)cc1`, for which the EC50 was 3.8 µM (active) in assay [5] and 3.49 µM (active) in assay [6].
For `COc1cccc(C(=O)N/N=C/C(Br)=C/c2ccccc2)c1`, in that order: 6.47 µM (active) and 6.24 µM (active).
For `Cc1nnc(SCC(=O)N(C)c2c(N)n(Cc3ccccc3)c(=O)[nH]c2=O)n1Cc1ccccc1`, the IC50 in assay [1] was > 47.1 µM (inactive). For the same compound, the EC50 in assay [2] is > 53 µM (inactive).
For the compound `Cc1ccc(-c2nn(C)c(=O)c3ccccc23)cc1CO`, in [1], the IC50 is > 47.1 µM (inactive). The EC50 in assay [2] was > 53 µM (inactive).
Take `O=C(Nc1ccccc1N1CCCCC1)C1CCN(C(=O)c2ccc(Cl)cc2)CC1`: the IC50 in assay [1] is > 47.1 µM (inactive). Besides, the EC50 in assay [2] was > 53 µM (inactive); in assay [7], > 195 µM (not active).
In the case of `C=CCn1c(SCc2ccc(F)cc2)nc2c1c(=O)[nH]c(=O)n2C`, the IC50 in [1] was > 47.1 µM (inactive). The EC50 in [2] is > 53 µM (inactive).
Consider `COc1cc(/C=N/NC(=O)c2cc(-c3ccc4c(c3)OCO4)[nH]n2)ccc1O`, for which the AC50 in assay [8] was 0.408 µM (active).
`CCOc1ccc(-c2cc(C(=O)NCC3CCCO3)c3ccccc3n2)cc1` (stereo unspecified): the EC50 in assay [3] is 47.2 µM (active); in assay [4], > 112 µM (not active).
For the compound `CC1(c2ccccc2)NC(=O)N(CC(=O)Nc2ccc(S(=O)(=O)Nc3ncccn3)cc2)C1=O` (stereo unspecified), the AC50 in [8] was 0.675 µM (active).
Take `CC(C)c1ccc(NC(=S)NN2CCOCC2)cc1`: the IC50 in [1] was > 47.1 µM (inactive). Further, the EC50 in assay [2] was > 53 µM (inactive).
Regarding `CC(=O)c1cccc(Nc2nc3ccccc3n3cnnc23)c1`, the CC50 in assay [9] is 43.9 µM (active). Further, the IC50 is < 0.368 µM (active) in assay [1] and > 79 µM (inactive) with H9c2. Moreover, in assay [2], the EC50 is > 53 µM (inactive).
Take `CC(=O)C1=C(C)N=C(S)NC1c1cc([N+](=O)[O-])ccc1O` (stereo unspecified): the IC50 in assay [1] was > 47.1 µM (inactive). Also, the EC50 in assay [2] was > 53 µM (inactive).
Turning to `CCCCC1(CCCC)C(=O)N=C(Nc2cccc(C)c2)NC1=O`, in assay [1], the IC50 is > 47.1 µM (inactive). Moreover, the EC50 in [5] was 12.2 µM (active); in [6], 12.1 µM (active); in assay [2] it was 3.98 µM (active). Besides, at Cytochrome P450 2D6, the AC50 is 14.1 µM (inconclusive).
In the case of `CC(=O)N1N=C(C)CC1c1ccc(OCc2ccccc2)cc1` (stereo unspecified), in [1], the IC50 was > 47.1 µM (inactive). In [2], the EC50 is > 53 µM (inactive).
On to `COc1ccc(C(C)=O)cc1CSc1nnc2c(Cl)cc(Cl)cn12`, for which the IC50 in assay [1] is > 47.1 µM (inactive). In addition, in [2], the EC50 was > 53 µM (inactive).
Regarding `Cc1ccc(-n2nc3ccc(NC(=O)/C=C/c4ccco4)cc3n2)cc1C`, the EC50 was 11.7 µM (active) in assay [5] and 8.83 µM (active) in [6].
Take `Cc1ccc(S(=O)(=O)CCC(=O)Nc2cc(Cl)ccc2-n2cncn2)cc1`: in [1], the IC50 was > 47.1 µM (inactive). Besides, in [2], the EC50 is > 53 µM (inactive).
For `CCC(C)C(=O)Nc1nnc(SCC(=O)NC(C)(C)C)s1` (stereo unspecified), the IC50 in assay [1] was > 47.1 µM (inactive). Moreover, the EC50 in [2] is > 53 µM (inactive).
With `Cc1ccccc1CNC(=O)Nc1cccs1`, the IC50 in [1] is > 47.1 µM (inactive). For the same compound, the EC50 in assay [2] is > 53 µM (inactive).
On to `COc1ccc(C2=CSC3=NNC4(CCCCC4)NN23)cc1`, for which, in assay [10], the EC50 is 38.8 µM (active). In addition, the AC50 in assay [8] is 1.42 µM (active).
As for `C/C(=N\NC(=O)c1ccc(N/N=C(\C)c2ccncc2)cc1)c1ccncc1`, in [8], the AC50 is 0.107 µM (active).
The same measure, in the same setting: with `Cc1nc(SCc2ccc(C(=O)O)cc2)nc2c1CCCC2` the figure was 3.29 µM (active).
Consider `COc1cc(CNc2ccc(C)c(C)c2)cc(OC)c1OC`, for which the AC50 in assay [8] is 9.13 µM (active).
In the case of `C#CCN1C(=O)C(O)(CC(=O)c2ccc(OC)c(OC)c2)c2ccccc21` (stereo unspecified), the results for the EC50 in assay [5] and in [6] were 21.2 µM (active) and 18 µM (active), respectively.
On to `CC(=O)Oc1cc2oc(=O)cc(C)c2cc1Cl`, for which, in [8], the AC50 was 2.62 µM (active).
Take `CCCCc1ccc(C2C3=C(CC(C)(C)CC3=O)N=C3C2=C(O)c2ccccc23)cc1` (stereo unspecified): the EC50 is 18.2 µM (active) in [5] and 13.2 µM (active) in assay [6].
As to `COc1ccc(-c2cc(C(F)(F)F)c(C#N)c(SCC(=O)Nc3nc(C)co3)n2)cc1`, the EC50 in [5] was 9.24 µM (active); in assay [6], 10.9 µM (active).
`O=C(CN1CCCc2ccccc21)N/N=C/c1ccc(O)cc1O`: the AC50 in [8] is 2.35 µM (active).
In the case of `CCOC(=O)c1c(Nc2ccc(Cl)cc2)sc(/C=C2\C=Nc3ccccc32)c1O`, the values for the EC50 in assay [5] and in assay [6] were 6.74 µM (active) and 6.61 µM (active), respectively.
As for `O=C1CCC(C(=O)Nc2ccccc2N2CCCC2)=NN1`, the AC50 in [8] was 3.7 µM (active).
Regarding `COc1cc(/C=C(\C#N)c2nc3ccccc3[nH]2)cc(Br)c1OCc1ccccc1`, the EC50 in [5] is 16.7 µM (active); in [6], 15.8 µM (active).
Consider `O=C(CN1CCN(C(=O)c2ccco2)CC1)Nc1c2c(nc3c1CCC3)CCCC2`, for which the IC50 in assay [1] is > 47.1 µM (inactive). For the same compound, the EC50 in assay [2] is > 53 µM (inactive).
As to `COc1ccc(C2NC(=O)CS2)cc1OC` (stereo unspecified), the AC50 in assay [8] is 0.093 µM (active).
On to `COc1ccc(NC(=O)CC2C(=O)Nc3ccccc3N2CC(=O)N2CCCC2)cc1` (stereo unspecified), for which the AC50 in [8] is 6.65 µM (active).
In the case of `Cc1ccc(CNC(=O)CN(c2ccc(C)cc2)S(=O)(=O)c2c(C)nn(C)c2C)cc1`, the IC50 in assay [1] was > 47.1 µM (inactive). In addition, in [2], the EC50 is > 53 µM (inactive).
Regarding `CCN1C(=O)c2cccc3c(S(=O)(=O)Nc4ccc(O)c(C(=O)O)c4)ccc1c23`, in assay [8], the AC50 was 1.55 µM (active).
Turning to `CC(=O)NC(C)C(c1cccs1)N1CCN(c2ccccc2)CC1` (stereo unspecified), the AC50 on Cytochrome P450 2C9 is 11.2 µM (inconclusive); in assay [8], 0.273 µM (active); on Cytochrome P450 2C19, 3.98 µM (inconclusive); at Cytochrome P450 3A4, 39.8 µM (inconclusive).
As for `O=C(COc1ccccc1F)N1CCN(CCN2C(=O)c3cccc4cccc(c34)C2=O)CC1`, the IC50 in assay [1] was > 47.1 µM (inactive). For the same compound, the EC50 in assay [2] is > 53 µM (inactive).
